Measurements reported in patent publication US9150592B2, “Heterocyclic nuclear hormone receptor modulators” (AbbVie Inc., priority 2012, dated 2015).
pIC50: −log10 of the molar value.

Assays:
[1] = test system: IL-6 in A549 cells stimulated with IL-1β; experiment: A549 Cell Assay to Measure Inflammation Markers (inhibition of IL-1β-induced IL-6); type: cell-based; details: intrinsic activity, Emax class ranges; for Emax: Homo sapiens, A549, A549 Cell Assay to Measure Inflammation Markers
Procedure, shortened: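 Compound pre-incubated with A549 cells 1 h at 37 °C, then stimulated with IL-1β (1 ng/mL final, 0.1% DMSO). Supernatant IL-6 quantified by MSD immunoassay after a further incubation. IC50 and Emax derived.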

[2] = biological target: T1, Glucocorticoid Receptor (GR) (Homo sapiens, UniProt P04150); experiment: GR Fluorescence Polarization Assay (PolarScreen Glucocorticoid Receptor Competitor Assay, Red); details: IC50 class ranges, read-out: GR binding
T1 construct: purchased Invitrogen P2893
T1 sequence (P04150 1-777): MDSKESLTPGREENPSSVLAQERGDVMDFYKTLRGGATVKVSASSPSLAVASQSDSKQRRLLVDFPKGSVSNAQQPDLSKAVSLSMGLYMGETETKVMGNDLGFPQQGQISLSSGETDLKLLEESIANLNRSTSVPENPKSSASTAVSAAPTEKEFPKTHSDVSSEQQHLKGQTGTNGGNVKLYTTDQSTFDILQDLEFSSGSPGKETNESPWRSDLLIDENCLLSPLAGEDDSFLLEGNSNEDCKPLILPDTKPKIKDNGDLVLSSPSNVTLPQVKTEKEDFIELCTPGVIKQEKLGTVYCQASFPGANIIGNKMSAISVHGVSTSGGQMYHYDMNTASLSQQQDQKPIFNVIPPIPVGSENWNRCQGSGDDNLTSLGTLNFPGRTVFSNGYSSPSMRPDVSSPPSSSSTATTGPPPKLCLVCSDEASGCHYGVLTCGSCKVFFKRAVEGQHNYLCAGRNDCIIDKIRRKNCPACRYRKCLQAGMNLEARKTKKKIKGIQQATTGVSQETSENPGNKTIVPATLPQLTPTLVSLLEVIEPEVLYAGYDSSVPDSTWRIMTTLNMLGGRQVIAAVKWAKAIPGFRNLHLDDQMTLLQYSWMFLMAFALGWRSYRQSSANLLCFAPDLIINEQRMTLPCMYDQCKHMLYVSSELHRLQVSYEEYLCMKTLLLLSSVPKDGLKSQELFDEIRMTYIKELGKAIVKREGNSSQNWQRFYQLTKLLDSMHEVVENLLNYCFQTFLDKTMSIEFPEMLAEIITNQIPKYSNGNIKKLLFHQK
Procedure, shortened: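 Competitive fluorescence-polarization assay using a red fluorescent glucocorticoid tracer with human GR in kit buffer. Compounds serially diluted 1:4 in DMSO, incubated with tracer and GR overnight at 4° C, then polarization read.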

| SMILES | Emax [1] | pIC50 [2] | A549 Emax ([1]; A549 Cell Assay to Measure Inflammation Markers) |
| --- | --- | --- | --- |
| Cn1nc(-c2ccccn2)c2c1NCCSC2c1ccc(Cl)cc1Cl (stereo not drawn) [D.8, 4-(2,4-dichlorophenyl)-1-methyl-3-(2-pyridyl)-4,6,7,8-tetrahydropyrazolo[3,4-e][1,4]thiazepine] | < 50% | > 7.00 |  |
| Cc1ccc(C2SCCNc3c2c(-c2ccccn2)nn3C)c(C)c1 (stereo not drawn) [D.9] | < 50% | > 7.00 |  |
| COc1ccc(C2SCCNc3c2c(-c2ccccn2)nn3C)c(C)c1 (stereo not drawn) [D.10] | < 50% | > 7.00 |  |
| Cc1cc(F)ccc1C1SCCNc2c1c(-c1ccccn1)nn2C (stereo not drawn) [D.11] | > 50% | > 7.00 |  |
| Cc1cc(OC(F)(F)F)ccc1C1SCCNc2c1c(-c1ccccn1)nn2C (stereo not drawn) [D.12] | < 50% | > 7.00 |  |
| Cc1cc(Cl)ccc1C1SCCNc2nn(C)cc21 (stereo not drawn) [D.13] | < 50% | 5.00 to 6.00 |  |
| Cc1ccccc1C1SCCNc2c1c(-c1ccccn1)nn2C (stereo not drawn) [D.14] | < 50% | > 7.00 |  |
| Cn1nc(-c2ccc(Br)cn2)c2c1NCCSC2c1ccc(Cl)cc1Cl (stereo not drawn) [D.15, 3-(5-bromo-2-pyridyl)-4-(2,4-dichlorophenyl)-1-methyl-4,6,7,8-tetrahydropyrazolo[3,4-e][1,4]thiazepine] | < 50% | > 7.00 |  |
| Cn1nc(-c2nccs2)c2c1NCCSC2c1ccc(Cl)cc1Cl (stereo not drawn) [D.16] | < 50% | > 7.00 |  |
| Cn1nc(-c2nccs2)c2c1NCC(C)(C)SC2c1ccc(Cl)cc1Cl (stereo not drawn) [D.17] | < 50% | 6.00 to 7.00 |  |
| Cn1nc(-c2ccncc2)c2c1NCCSC2c1ccc(Cl)cc1Cl (stereo not drawn) [D.18] | < 50% | 6.00 to 7.00 |  |
| Cc1cc(Cl)ccc1C1SCCNc2c1c(-c1cc(Br)ccn1)nn2C (stereo not drawn) [D.19] | < 50% | > 7.00 |  |
| Cc1ccc(C)c(C2SCCNc3c2c(-c2ccccn2)nn3C)c1 (stereo not drawn) [D.20] | < 50% | > 7.00 |  |
| Cc1cc(Cl)cnc1C1SCCNc2c1c(-c1ccccn1)nn2C (stereo not drawn) [D.21] | < 50% | 6.00 to 7.00 |  |
| COc1ccnc(-c2nn(C)c3c2C(c2ccc(Cl)cc2C)SCCN3)c1 (stereo not drawn) [D.22] | < 50% | > 7.00 |  |
| Cn1nc(-c2ccccn2)c2c1NCCSC2c1ccc(Cl)cc1 (stereo not drawn) [D.23] | < 50% | 6.00 to 7.00 |  |
| Cc1cc(Cl)ccc1C1SCCNc2c1c(-c1cc(Cl)ccn1)nn2C (stereo not drawn) [D.24] | < 50% | > 7.00 |  |
| Cn1nc(-c2ccccn2)c2c1NCCSC2c1ccc(Br)cc1 (stereo not drawn) [D.25, 4-(4-bromophenyl)-1-methyl-3-(2-pyridyl)-4,6,7,8-tetrahydropyrazolo[3,4-e][1,4]thiazepine] | < 50% | 6.00 to 7.00 |  |
| Cc1cc(Br)sc1C1SCCNc2c1c(-c1ccccn1)nn2C (stereo not drawn) [D.26, 4-(5-bromo-3-methyl-2-thienyl)-1-methyl-3-(2-pyridyl)-4,6,7,8-tetrahydropyrazolo[3,4-e][1,4]thiazepine] | < 50% | > 7.00 |  |
| Cc1ccc(Br)cc1C1SCCNc2c1c(-c1ccccn1)nn2C (stereo not drawn) [D.27, 4-(5-bromo-2-methyl-phenyl)-1-methyl-3-(2-pyridyl)-4,6,7,8-tetrahydropyrazolo[3,4-e][1,4]thiazepine] | < 50% | > 7.00 |  |
| COc1ccc(C)c(C2SCCNc3c2c(-c2ccccn2)nn3C)c1 (stereo not drawn) [D.28] | < 50% | 5.00 to 6.00 |  |
| Cc1cc(-c2nn(C)c3c2C(c2ccc(Br)cc2C)SCCN3)on1 (stereo not drawn) [D.29] | < 50% | > 7.00 |  |
| CCn1nc(-c2ccccn2)c2c1NCCSC2c1ccc(Br)cc1C (stereo not drawn) [D.30, 4-(4-bromo-2-methyl-phenyl)-1-ethyl-3-(2-pyridyl)-4,6,7,8-tetrahydropyrazolo[3,4-e][1,4]thiazepine] | > 70% | > 7.00 |  |
| CN(C)c1ccc(-c2nn(C)c3c2C(c2ccc(Cl)cc2Cl)SCCN3)cc1 (stereo not drawn) [D.31] | < 50% | 5.00 to 6.00 |  |
| Cn1nc(-c2ccccn2)c2c1NCC(C)(C)SC2c1ccc(Cl)cc1Cl (stereo not drawn) [D.32] | < 50% | > 7.00 |  |
| Cc1cccc(C2SCCNc3c2c(-c2ccccn2)nn3C)c1C (stereo not drawn) [D.33] | < 50% | 6.00 to 7.00 |  |
| Cc1sc(Br)cc1C1SCCNc2c1c(-c1ccccn1)nn2C (stereo not drawn) [D.34, 4-(5-bromo-2-methyl-3-thienyl)-1-methyl-3-(2-pyridyl)-4,6,7,8-tetrahydropyrazolo[3,4-e][1,4]thiazepine] | < 50% | > 7.00 |  |

| SMILES | Emax [1] | pIC50 [2] | A549 Emax ([1]; A549 Cell Assay to Measure Inflammation Markers) |
| --- | --- | --- | --- |
| COc1cc(C2SCCNc3c2c(-c2ccccn2)nn3C)c(C)cc1Cl (stereo not drawn) [D.35] | < 50% | 5.00 to 6.00 |  |
| Cn1nc(-c2ccccn2)c2c1NCCSC2Cc1ccccc1 (stereo not drawn) [D.36] | < 50% | < 5.00 |  |
| Cn1nc(-c2ccccn2)c2c1NCCSC2c1ccc(Cl)cc1Br (stereo not drawn) [D.37, 4-(2-bromo-4-chloro-phenyl)-1-methyl-3-(2-pyridyl)-4,6,7,8-tetrahydropyrazolo[3,4-e][1,4]thiazepine] | > 50% | > 7.00 |  |
| Cn1nc(-c2ccccn2)c2c1NCCSC2c1ccc(Cl)cc1C1CC1 (stereo not drawn) [D.38] | > 50% | > 7.00 |  |
| Cn1nc(-c2ccccn2)c2c1NCCSC2c1ccc(Cl)cc1CF (stereo not drawn) [D.39] | > 60% | > 7.00 |  |
| Cc1ccc(Cl)cc1C1SCCNc2c1c(-c1ccccn1)nn2C (stereo not drawn) [D.40] | < 50% | > 7.00 |  |
| Cc1cc(C(F)(F)F)ccc1C1SCCNc2c1c(-c1ccccn1)nn2C (stereo not drawn) [D.41] | < 50% | > 7.00 |  |
| Cc1cc(O)ccc1C1SCCNc2c1c(-c1ccccn1)nn2C (stereo not drawn) [D.42, 3-methyl-4-[1-methyl-3-(2-pyridyl)-4,6,7,8-tetrahydropyrazolo[3,4-e][1,4]thiazepin-4-yl]phenol] | > 50% | > 7.00 |  |
| Cc1cc(-c2nn(C)c3c2C(c2ccc(Cl)cc2C)SCCN3)no1 (stereo not drawn) [D.43] | < 50% | > 7.00 |  |
| Cc1cc(Br)ccc1C1SCCNc2onc(-c3ccccn3)c21 (stereo not drawn) [D.44, 4-(4-bromo-2-methyl-phenyl)-3-(2-pyridyl)-4,6,7,8-tetrahydroisoxazolo-[5,4-e][1,4]thiazepine] | < 50% | > 7.00 |  |
| Cc1cc(Cl)ccc1C1SC(C)(C)CNc2c1c(C1CC1)nn2C (stereo not drawn) [D.45] | > 60% | > 7.00 |  |
| Cc1ccc(Cl)cc1C1SC(C)(C)CNc2c1c(C1CC1)nn2C (stereo not drawn) [D.46] | < 50% | > 7.00 |  |
| COc1cc(Cl)ccc1C1SC(C)(C)CNc2c1c(C1CC1)nn2C (stereo not drawn) [D.47] | < 50% | 6.00 to 7.00 |  |
| Cn1nc(C2CC2)c2c1NCC(C)(C)SC2c1ccc(Cl)cc1C(F)(F)F (stereo not drawn) [D.48] | < 50% | 6.00 to 7.00 |  |
| Cc1ccc(C)c(C2SC(C)(C)CNc3c2c(C2CC2)nn3C)c1 (stereo not drawn) [D.49] | < 50% | > 7.00 |  |
| Cc1cc(Cl)cnc1C1SC(C)(C)CNc2c1c(C1CC1)nn2C (stereo not drawn) [D.50] | < 50% | 6.00 to 7.00 |  |
| Cc1cc(Br)ccc1C1SC(C)CNc2c1c(C1CC1)nn2C (stereo not drawn) [D.51, 4-(4-bromo-2-methyl-phenyl)-3-cyclopropyl-1,6-dimethyl-4,6,7,8-tetrahydropyrazolo[3,4-e][1,4]thiazepine] | < 50% | 6.00 to 7.00 |  |
| Cc1cc(Br)ccc1C1SC(C)CNc2c1c(C1CC1)nn2C (stereo not drawn) [D.52] |  | > 7.00 | D (a compound with Emax<50%) |
| Cn1nc(C2CC2)c2c1NCC(C)(C)SC2c1ccc(Cl)cc1F (stereo not drawn) [D.53] | < 50% | > 7.00 |  |
| Cc1ccc(Br)cc1C1SC(C)(C)C=Nc2c1c(C1CC1)nn2C (stereo not drawn) [D.54] | < 50% | 5.00 to 6.00 |  |
| Cc1ccc(Br)cc1C1SC(C)(C)CNc2c1c(C1CC1)nn2C (stereo not drawn) [D.55, 4-(5-bromo-2-methyl-phenyl)-3-cyclopropyl-1,6,6-trimethyl-7,8-dihydro-4H-pyrazolo[3,4-e][1,4]thiazepine] | < 50% | > 7.00 |  |
| Cc1cc(F)ccc1C1SC(C)(C)CNc2c1c(C1CC1)nn2C (stereo not drawn) [D.56] | < 50% | > 7.00 |  |
| Cc1cc(Cl)ccc1C1SC(C)(C)CNc2c1c(C)nn2C (stereo not drawn) [D.57] | > 50% | > 7.00 |  |
| Cc1cc(Br)ccc1C1SC(C)(C)CNc2c1c(C)nn2C (stereo not drawn) [D.58, 4-(4-bromo-2-methyl-phenyl)-1,3,6,6-tetramethyl-7,8-dihydro-4H-pyrazolo[3,4-e][1,4]thiazepine] | > 50% | > 7.00 |  |
| Cc1cc(Cl)ccc1C1SCCNc2c1c(C)nn2C (stereo not drawn) [D.59] | < 50% | 6.00 to 7.00 |  |
| Cc1nn(C)c2c1C(c1ccc(Br)cc1Cl)SC(C)(C)CN2 (stereo not drawn) [D.60] | > 50% | > 7.00 |  |
| Cc1cc(C(F)(F)F)ccc1C1SC(C)(C)CNc2c1c(C)nn2C (stereo not drawn) [D.61] | < 50% | > 7.00 |  |
